Measurements as given in patent US20100129478A1, “Plant Extracts and Methods and Uses Therefore” (priority 2005, published 2010).

Test system: human hepatic cell line HepG2
Test: Anti-cancer assay: cytotoxicity on HepG2 cells, trypan blue counting
Format: cell-based
Protocol: The cells were seeded at a density of 2.5×10^5 cell per ml in a 24 well plate. The cells were allowed to attach for 2 hour before adding the extracts at a concentration of 10 μg/ml. […] The cell viability was determined after 24 hours.
Seed HepG2 at a cell density of 2.5×10^5 cells per ml. […] Incubate in 5% CO2 incubator at 37° C. for 48 hour. Trypsinize cell. Mix with 1 part trypan blue and 4 parts PBS and count the viable cells and the non-viable cells by counting the cells that has taken typan blue (non-viable cells) and the ones that has excluded it (viable cells).

O=C1O[C@H]([C@@H](O)CO)C(O)=C1O [ascorbic acid]
No. of live cells: 66.5
